According to patent US8853424B2 (Japan Science and Technology Agency, priority 2008, dated 2014):

Columns and labels:
[1] = tested on: Truncated N-terminal huntington 150 Q-EGFP-Neuron 2a cells; assay: Measurement of x-Fold (polyglutamine aggregation inhibitory activity); assay type: cell-based
Procedure: In the present invention, the polyglutamine aggregation inhibitory activity (x-Fold) can be measured, for example, by the method described in the Example.
The number of the aggregated cells, and the total number of cells were counted by Array Scan V T1 (manufactured by Cellomics, Pittuburg, USA), and the ratio of the aggregated cells to the total number of cells was determined (x-Fold). […]

transglutaminase (TGase) = assay: Measurement of TG (TGase inhibitory activity, monodansyl cadaverine / N,N-dimethylcasein fluorescence, FDSS 3000); assay type: biochemical
Method in brief: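 Compound (1 μL of 10 mM stock) added to 0.1 mL reaction: 100 mM HEPES-NaOH pH 7.5, 1 mM CaCl2, 20 μM monodansyl cadaverine, 0.05 mg/mL N,N-dimethylcasein, 5 μg/mL TGase. Rate of fluorescence change at 340 nm measured; DMSO control set to 100; TG50 is the concentration halving activity.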

[2] = polyglutamine aggregation inhibitory activity, Table 1
[3] = ratio of aggregated cells to total number of cells, compound 20 μM, 20 hr, almost 1 without compound, smaller = stronger inhibition
[4] = TGase activity with compound (10 mM, 1 μL in 0.1 ml enzyme reaction solution), DMSO control taken as 100
[5] = TGase inhibitory activity value, Table 1

Row | TGase activity remaining (% of DMSO control = 100) (transglutaminase (TGase); [4]) | TGase activity remaining (% of DMSO control = 100) (transglutaminase (TGase); [5]) | Compound | x-Fold [1, 2] | x-Fold [1, 3]
1 | 137 | 137 | Cc1ccc(B(OC(=O)C(N)CCC(N)=O)c2ccc(C)c(Cl)c2)cc1Cl (stereo not drawn) [Example 182, di(3-chloro-4-methylphenyl)(glutaminate-O,N)borane] | 1.01 | 1.01
2 | 91 | 91 | CCCCB(CCCC)OC(=O)C(N)CC(N)=O (stereo not drawn) [Example 183, dibutyl(asparagine-O,N)borane] | 1.02 | 1.02
3 | 94 | 94 | c1ccc(B(OCc2ccccn2)c2ccc(COCc3ccc(B(OCc4ccccn4)c4ccccc4)cc3)cc2)cc1 [Example 184, di(4-(phenyl-2-pyridylmethoxyboryl)benzyl)ether] | 0.95 | 0.95
4 | 106 | 106 | OB(Cc1ccc(OCc2ccc(B(O)c3ccccc3)cc2)cc1)Cc1ccc(OCc2ccc(B(O)c3ccccc3)cc2)cc1 [Example 187, bis((4,4′-phenylhydroxyboryl)benzyloxybenzyl)hydroxyborane] | 0.97 | 0.97
5 | 91 | – | CCCNCCOB(c1ccc(C(F)(F)F)cc1)c1ccc(C(F)(F)F)cc1 [Example 188, di(trifluoromethylphenyl) 2-propylaminoethylborinate] | – | 0.98
6 | 119 | 119 | NCCOB(c1ccccc1)c1ccc(COCc2ccc(B(OCCN)c3ccc(COCc4ccc(B(OCCN)c5ccccc5)cc4)cc3)cc2)cc1 [Example 189, bis((4,4′-phenylaminoethoxyboryl)benzyloxybenzyl)aminoethoxyborane] | 0.94 | 0.94
7 | 102 | 102 | FC(F)(F)c1ccc(C(OB(c2ccccc2)c2ccc(COCc3ccc(B(OC(c4ccc(C(F)(F)F)cc4)c4ccccn4)c4ccc(COCc5ccc(B(OC(c6ccc(C(F)(F)F)cc6)c6ccccn6)c6ccccc6)cc5)cc4)cc3)cc2)c2ccccn2)cc1 (stereo not drawn) [Example 192, bis((4,4′-phenyl 2-pyridyl-4-trifluoromethylphenylmethoxyboryl)benzyloxybenzyl) 2-pyridyl-4-trifluoromethyl phenylmethoxyborane] | 0.95 | 0.95
8 | 92 | 92 | NC(=O)C1NCCNC1C(=O)OB(c1ccccc1)c1ccccc1 (stereo not drawn) [Example 193, diphenyl(2-piperazine-3-carboxyamide-carboxy)borane] | 1.03 | 1.03
9 | 106 | 106 | CSCCC(N)C(=O)OB(c1ccccc1)c1ccccc1 (stereo not drawn) [Example 194, diphenyl(methionate-O,N)borane] | 1.03 | 1.03
10 | 115 | 115 | c1ccc(B(ON2CCCCC2)c2cccc(Oc3cccc(B(ON4CCCCC4)c4ccccc4)c3)c2)cc1 [Example 195, di(phenyl 3-piperidinooxyborylphenyl)ether] | 0.77 | 0.77
11 | 117 | 117 | c1ccc(B2OCCN3CCN(CCOB(c4ccccc4)c4ccc(cc4)Oc4ccc2cc4)CC3)cc1 [Example 196, 4,4′-(phenylpiperazino-O,O-ethoxyboryl)phenylether] | 0.90 | 0.90
